Reference: patent publication US6133279A, “Therapeutic agents for renal diseases and organ preservatives” (Chugai Seiyaku Kabushiki Kaisha, priority 1996, dated 2000)

Test system: puromycin-induced nephrosis model
Assay: Puromycin-induced nephrosis (2), postadministration (in vivo)
Parameters: species or system rat (male SD rats)
Conditions: 200 mg/kg oral once a day from the day following puromycin
Method: Effect of the compounds of the present invention on an in vivo renal disease was studied using a puromycin-induced nephrosis model. A puromycin-induced renal failure model was prepared from rats in groups of 5-8 each (6 week-old male SD rats) fed with high-fat diet. High-fat diet feeding was started by free access to high-fat diet (cholesterol level 1.25%) from 7 days before puromycin treatment. Puromycin (puromycin aminonucleoside, SIGMA Chemical Co.) treatment was performed by intraperitoneal administration at a dose of 100 mg/kg. Test compounds were administered as a solution in soybean oil via oral route (4 ml/kg). Control group was orally administered soybean oil alone. Probucol and a water-soluble α-tocopherol analogue, Trolox, were used as reference control compounds. The compounds were orally administered once a day from the following day of the puromycin treatment. Renal functions were determined by using urine and blood samples. The volume of urine, urea nitrogen level and creatinine levels of serum and urine were evaluated to calculate creatinine clearance as an indication of renal functions.

CCCCCC1(CCCCC)Cc2c(cc(C(C)(C)C)c(O)c2C(C)(C)C)O1 [Example 36, 4,6-Di-t-butyl-2,2-di-n-pentyl-5-hydroxy-2,3-dihydrobenzofuran]
Creatinine (control 0.82 ± 0.07): 0.75 ± 0.11 mg/dL
Urine nitrogen (control 30.74 ± 10.95): 24.57 ± 10.68 mg/dL
Creatinine clearance (control 824 ± 108): 837 ± 205 mL/day
